pIC50: −log10 of the molar value. Several values for one entry are separate records, joined by “and”; a condition that tells them apart may be missing. Equal entries are not always repeated.
Each molecule was assayed against SARS-CoV-2 Main Protease (SARS-CoV-2) (UniProt P0DTD1).

Row | SMILES | pIC50
1 | CCN(C(=O)c1ccco1)C(C(=O)NCCc1cccc(F)c1)c1cccnc1 (centres undefined) | < 4.00
2 | O=C(Cc1cc(Cl)cc(Nc2cc(Br)cc(C(F)(F)F)c2)c1)Nc1cncc2ccccc12 | 5.73
3 | Cc1cc(C)nc(C#N)n1 | < 4.00
4 | COc1cc2cncc(NC(=O)Cc3cccc(Cl)c3)c2cc1OC | < 4.00
5 | O=C(CCl)N1CCN(Cc2cccc3ccccc23)CC1 | 5.24
6 | Cc1cc(Br)c(Nc2cc(Cl)cc(CC(=O)Nc3cncc4ccccc34)c2)c([N+](=O)[O-])c1 | 5.71
7 | C[C@@H](C(=O)Nc1cncnc1)c1ccccc1 (stereo in doubt) | < 4.00
8 | Cc1cc(C(=O)CCl)c(C)n1CC1COc2ccccc2O1 (centres undefined) | 5.55
9 | Cc1cc2c(cc1C)C(C(=O)N1CCCCC1c1cn[nH]c1)CO2 (centres undefined) | < 4.00
10 | O=C(Cc1cccc(Cl)c1)Nc1cncc2c1NCCC2 | 4.42
11 | COc1cc(CNc2cc(Cl)cc(CC(=O)Nc3cncc4ccccc34)c2)ccc1O | 5.73
12 | Cc1ccccc1NC(=O)CC1SC(=O)N(c2ccccc2)C1=O (centres undefined) | 6.35
13 | O=C(Cc1cccc(Cl)c1)Nc1cncc2ccc(OCC(F)(F)F)cc12 | 5.96
14 | CC(NC(=O)CCl)c1cc(Cl)cc(-c2ccc(S(N)(=O)=O)cc2)c1 (centres undefined) | 6.33
15 | O=C(Cc1cc(Cl)cc(NCc2ccc(Br)cc2)c1)Nc1cncc2ccccc12 | < 4.00
16 | COCc1csc(CNC(=O)c2ncc(Cl)cc2Cl)c1 | < 4.00
17 | Cc1ccncc1NC(=O)Cc1cc(Cl)cc(OCc2ncn[nH]2)c1 | 4.43
18 | N#CC1(CS(=O)(=O)N2Cc3ccc(Cl)cc3C3(CCN(c4cncc5cc(F)cc(Cl)c45)C3=O)C2)CC1 (centres undefined) | 4.62
19 | Cn1cc(NC(=O)Cc2cccc(Cl)c2)c2ccccc2c1=O | < 4.00
20 | O=C(Nc1cncc2ccccc12)C1CN(S(=O)(=O)[C@@H]2CCC[C@H]2O)Cc2ccc(Cl)cc21 (stereo in doubt) | 6.89 and 6.84
21 | N#CC1(CS(=O)(=O)N2Cc3ccc(Cl)cc3C3(CCN(c4cncc5ccc(Cl)cc45)C3=O)C2)CC1 (centres undefined) | 6.09
22 | O=C(Cc1cc(Cl)cc(N[C@H](c2ccccc2)[C@@H](O)c2ccccc2)c1)Nc1cncc2ccccc12 (stereo in doubt) | 5.65
23 | O=C(Cc1cc(Cl)cc(Nc2n[nH]c3ccc(Br)cc23)c1)Nc1cncc2ccccc12 | 5.74
24 | O=C(Nc1cncc2ccccc12)C1CN(Cc2nnc[nH]2)Cc2ccc(Cl)cc21 (centres undefined) | 6.11
25 | Nc1nn(C(=O)C2CCOc3ccc(Cl)cc32)c2cc(F)ccc12 (centres undefined) | < 4.00

Row | SMILES | pIC50
26 | O=C(Nc1cncc2ccccc12)C1CN(S(=O)(=O)C2COC2)Cc2ccc(Cl)cc21 (centres undefined) | 6.61
27 | Cc1ccncc1NC(=O)Cc1cc(Cl)cc(CNS(C)(=O)=O)c1 | 4.78
28 | C=CS(=O)(=O)N1CCN(S(=O)(=O)c2ccccc2)CC1 | < 4.00
29 | N#CC1(CS(=O)(=O)NCc2ccc(Cl)cc2CC(=O)Nc2cncc3ccccc23)CC1 | 6.88
30 | O=C(NCCc1cccc(F)c1)C(c1cccnc1)N(C(=O)c1cnc[nH]1)c1ccc2c(c1)CCC(=O)N2CC(F)F (centres undefined) | 4.32
31 | O=C(Cc1cc(Cl)cc(NCc2ccc([N+](=O)[O-])cc2)c1)Nc1cncc2ccccc12 | 5.74
32 | Cc1nn(C)c2nc(Cl)cc(NNC(=O)c3ccnc4[nH]nnc34)c12 | < 4.00
33 | Cc1cc(Br)cc(C)c1Nc1cc(Cl)cc(CC(=O)Nc2cncc3ccccc23)c1 | 5.77
34 | O=CN1CCC(OC(=O)c2c[nH]nc2-c2ccc(Cl)cc2)CC1 | < 4.00
35 | O=C(NCCc1cccc(F)c1)C(c1cccnc1)N(C(=O)c1cocn1)C1CCCCCC1 (centres undefined) | < 4.00
36 | Clc1scc(CN2CCC(c3ccn[nH]3)CC2)c1Cl | < 4.00
37 | CNC(=O)CN1C[C@]2(CC(=O)N(c3cncc4ccccc34)C2=O)c2cc(Cl)ccc2C1=O (stereo in doubt) | 4.07
38 | CCC(C)c1ccc(C(NCC(=O)Nc2ccc3[nH]c(=O)[nH]c3c2)c2cccs2)cc1 (centres undefined) | < 4.00
39 | CNC(=O)CN1Cc2ccc(Cl)cc2C(C(=O)Nc2cncc3cc(NS(C)(=O)=O)ccc23)C1 (centres undefined) | 7.14
40 | O=C(NCCc1cccc(F)c1)C(c1cccnc1)N(C(=O)c1cocn1)c1ccc(C2(O)COC2)cc1 (centres undefined) | < 4.00
41 | CS(=O)(=O)c1ccc2c(NC(=O)C3CN(CC(=O)NC4CCC4)C(=O)c4ccc(Cl)cc43)cncc2c1 (centres undefined) | 6.60
42 | Cc1c(Br)cnc(Nc2cc(Cl)cc(CC(=O)Nc3cncc4ccccc34)c2)c1[N+](=O)[O-] | 5.66
43 | Cc1ccncc1C(C(=O)NCCc1cccc(F)c1)N(C(=O)c1cocn1)c1ccc(C(C)(C)C)cc1 (centres undefined) | 6.19
44 | COCOc1ccc(N(C(=O)c2cocn2)C(C(=O)NCCc2cccc(F)c2)c2cccnc2)cc1 (centres undefined) | 4.88
45 | O=C(Cc1cc(Cl)cc(OC2CCC(=O)N2)c1)Nc1cncc2ccccc12 (centres undefined) | 4.07
46 | NC(=O)C1Cc2nc[nH]c2CN1C(=O)CC1(C(=O)Nc2cncc3ccccc23)CCOc2ccc(Cl)cc21 (centres undefined) | 5.03
47 | O=C(Cc1cc(Cl)cc(Nc2c(F)cc(Br)cc2F)c1)Nc1cncc2ccccc12 | 5.81
48 | O=C(Cc1cccc(Cl)c1)Nc1cncc2c1CCCC2 | < 4.00
49 | Cc1nn(C)c2[nH]nc(NC(=O)Cc3cccc(Cl)c3)c12 | < 4.00

Reference: the COVID Moonshot data (paper PMC7615835)
